{"source": "the supplement of paper PMC10307832", "test_in_all_cases": "relative viability (nuclei count vs DMSO), 5 days (fraction); higher = more cells survive", "key": {"[1]": {"compound": "COc1cc(Nc2c(C#N)cnc3cc(OCCCN4CCN(C)CC4)c(OC)cc23)c(Cl)cc1Cl [Bosutinib]", "in_short": "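Five library-drug doses spaced by √10 were pinned onto vehicle-anchored 1536-well plates of lung cancer cell lines that had been kept overnight at 37 °C. Cells went 5 days without medium change, then were fixed, permeabilised and Hoechst-stained together, imaged at 4× and counted by MetaXpress. Viability is the ratio of treated-well to vehicle-well nuclei, taken as a median over plates. Plates required control CV below 25% and at least one doubling.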"}, "[2]": {"compound": "COc1cc(Nc2c(C#N)cnc3cc(OCCCN4CCN(C)CC4)c(OC)cc23)c(Cl)cc1Cl [Bosutinib] + O=C(c1cc(Cc2n[nH]c(=O)c3ccccc23)ccc1F)N1CCN(C(=O)C2CC2)CC1 [Olaparib] (partner 8 µM)", "in_short": "(§1)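 Each reported value is a median over duplicate plates. It expresses relative viability: treated-well nuclei count divided by vehicle-well nuclei count. Lung cancer cell lines in 1536-well plates were dosed by pin tool a day after seeding, alone with one drug or with a fixed anchor-drug dose plus five library-drug doses (not always all listed) in √10 steps, and nuclei were counted after 5 days.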"}, "[3]": {"compound": "COc1cc(Nc2c(C#N)cnc3cc(OCCCN4CCN(C)CC4)c(OC)cc23)c(Cl)cc1Cl [Bosutinib] + CS(=O)(=O)N1CCN(Cc2cc3nc(-c4cccc5[nH]ncc45)nc(N4CCOCC4)c3s2)CC1 [Pictilisib] (partner 1 µM)", "in_short": "as §1"}, "[4]": {"compound": "COc1cc(Nc2c(C#N)cnc3cc(OCCCN4CCN(C)CC4)c(OC)cc23)c(Cl)cc1Cl [Bosutinib] + COc1cc2c(Oc3ccc(NC(=O)C4(C(=O)Nc5ccc(F)cc5)CC4)cc3F)ccnc2cc1OCCCN1CCOCC1 [Foretinib] (partner 0.25 µM)", "in_short": "as §1"}, "[5]": {"compound": "COc1cc(Nc2c(C#N)cnc3cc(OCCCN4CCN(C)CC4)c(OC)cc23)c(Cl)cc1Cl [Bosutinib] + CC1(C)CCC(c2ccc(Cl)cc2)=C(CN2CCN(c3ccc(C(=O)NS(=O)(=O)c4ccc(N[C@H](CCN5CCOCC5)CSc5ccccc5)c(S(=O)(=O)C(F)(F)F)c4)cc3)CC2)C1 [Navitoclax] (partner 0.5 µM)", "in_short": "as §1"}, "[6]": {"compound": "COc1cc(Nc2c(C#N)cnc3cc(OCCCN4CCN(C)CC4)c(OC)cc23)c(Cl)cc1Cl [Bosutinib] + CS(=O)(=O)CCNCc1ccc(-c2ccc3ncnc(Nc4ccc(OCc5cccc(F)c5)c(Cl)c4)c3c2)o1 [Lapatinib] (partner 2 µM)", "in_short": "as §1"}, "[7]": {"compound": "COc1cc(Nc2c(C#N)cnc3cc(OCCCN4CCN(C)CC4)c(OC)cc23)c(Cl)cc1Cl [Bosutinib] + Cc1nc(NC(=O)N2CCC[C@H]2C(N)=O)sc1-c1ccnc(C(C)(C)C(F)(F)F)c1 [Alpelisib] (partner 2 µM)", "in_short": "as §1"}, "[8]": {"compound": "COc1cc(Nc2c(C#N)cnc3cc(OCCCN4CCN(C)CC4)c(OC)cc23)c(Cl)cc1Cl [Bosutinib] + C[C@]1(O)C[C@@H](c2nc(-c3ccc4ccc(-c5ccccc5)nc4c3)c3c(N)nccn32)C1 [Linsitinib] (partner 1 µM)", "in_short": "as §1"}, "[9]": {"compound": "COc1cc(Nc2c(C#N)cnc3cc(OCCCN4CCN(C)CC4)c(OC)cc23)c(Cl)cc1Cl [Bosutinib] + CC(C)C[C@H](NC(=O)[C@H](Cc1ccccc1)NC(=O)c1cnccn1)B(O)O [Bortezomib] (partner 0.002 µM)", "in_short": "as §1"}, "[10]": {"compound": "COc1cc(Nc2c(C#N)cnc3cc(OCCCN4CCN(C)CC4)c(OC)cc23)c(Cl)cc1Cl [Bosutinib] + C[C@@H](Oc1cc(-c2cnn(C3CCNCC3)c2)cnc1N)c1c(Cl)ccc(F)c1Cl [Crizotinib] (partner 1 µM)", "in_short": "as §1"}}, "data": [{"cell line": "Calu-6", "values": [{"measurement": "relative viability", "setting": "[1]; 0.01 µM", "result": 1.01}, {"measurement": "relative viability", "setting": "[1]; 0.03162 µM", "result": 1.02}, {"measurement": "relative viability", "setting": "[1]; 0.1 µM", "result": 0.976}, {"measurement": "relative viability", "setting": "[1]; 1 µM", "result": 0.837}, {"measurement": "relative viability", "setting": "[2]; first compound 0.01 µM", "result": 0.596}, {"measurement": "relative viability", "setting": "[2]; first compound 0.03162 µM", "result": 0.561}, {"measurement": "relative viability", "setting": "[2]; first compound 0.1 µM", "result": 0.598}, {"measurement": "relative viability", "setting": "[2]; first compound 1 µM", "result": 0.472}, {"measurement": "relative viability", "setting": "[3]; first compound 0.01 µM", "result": 0.937}, {"measurement": "relative viability", "setting": "[3]; first compound 0.03162 µM", "result": 0.923}, {"measurement": "relative viability", "setting": "[3]; first compound 0.1 µM", "result": 0.867}, {"measurement": "relative viability", "setting": "[3]; first compound 1 µM", "result": 0.834}, {"measurement": "relative viability", "setting": "[4]; first compound 0.01 µM", "result": 0.927}, {"measurement": "relative viability", "setting": "[4]; first compound 0.03162 µM", "result": 0.888}, {"measurement": "relative viability", "setting": "[4]; first compound 0.1 µM", "result": 0.932}, {"measurement": "relative viability", "setting": "[4]; first compound 1 µM", "result": 0.772}, {"measurement": "relative viability", "setting": "[5]; first compound 0.01 µM", "result": 0.814}, {"measurement": "relative viability", "setting": "[5]; first compound 0.03162 µM", "result": 0.801}, {"measurement": "relative viability", "setting": "[5]; first compound 0.1 µM", "result": 0.757}, {"measurement": "relative viability", "setting": "[5]; first compound 1 µM", "result": 0.821}, {"measurement": "relative viability", "setting": "[6]; first compound 0.01 µM", "result": 1.15}, {"measurement": "relative viability", "setting": "[6]; first compound 0.03162 µM", "result": 1.14}, {"measurement": "relative viability", "setting": "[6]; first compound 0.1 µM", "result": 1.11}, {"measurement": "relative viability", "setting": "[6]; first compound 1 µM", "result": 0.893}, {"measurement": "relative viability", "setting": "[7]; first compound 0.01 µM", "result": 0.927}, {"measurement": "relative viability", "setting": "[7]; first compound 0.03162 µM", "result": 1.07}, {"measurement": "relative viability", "setting": "[7]; first compound 0.1 µM", "result": 0.958}, {"measurement": "relative viability", "setting": "[7]; first compound 1 µM", "result": 0.824}, {"measurement": "relative viability", "setting": "[8]; first compound 0.01 µM", "result": 1.05}, {"measurement": "relative viability", "setting": "[8]; first compound 0.03162 µM", "result": 0.957}, {"measurement": "relative viability", "setting": "[8]; first compound 0.1 µM", "result": 0.96}, {"measurement": "relative viability", "setting": "[8]; first compound 1 µM", "result": 0.794}, {"measurement": "relative viability", "setting": "[9]; first compound 0.01 µM", "result": 1.01}, {"measurement": "relative viability", "setting": "[9]; first compound 0.03162 µM", "result": 0.954}, {"measurement": "relative viability", "setting": "[9]; first compound 0.1 µM", "result": 1.02}, {"measurement": "relative viability", "setting": "[9]; first compound 1 µM", "result": 0.905}, {"measurement": "relative viability", "setting": "[10]; first compound 0.01 µM", "result": 0.747}, {"measurement": "relative viability", "setting": "[10]; first compound 0.03162 µM", "result": 0.796}, {"measurement": "relative viability", "setting": "[10]; first compound 0.1 µM", "result": 0.798}, {"measurement": "relative viability", "setting": "[10]; first compound 1 µM", "result": 0.788}]}, {"cell line": "EBC-1", "values": [{"measurement": "relative viability", "setting": "[1]; 0.01 µM", "result": 1.05}, {"measurement": "relative viability", "setting": "[1]; 0.03162 µM", "result": 0.956}, {"measurement": "relative viability", "setting": "[1]; 0.1 µM", "result": 0.984}, {"measurement": "relative viability", "setting": "[1]; 1 µM", "result": 0.881}, {"measurement": "relative viability", "setting": "[2]; first compound 0.01 µM", "result": 0.693}, {"measurement": "relative viability", "setting": "[2]; first compound 0.03162 µM", "result": 0.737}, {"measurement": "relative viability", "setting": "[2]; first compound 0.1 µM", "result": 0.659}, {"measurement": "relative viability", "setting": "[2]; first compound 1 µM", "result": 0.658}, {"measurement": "relative viability", "setting": "[3]; first compound 0.01 µM", "result": 0.347}, {"measurement": "relative viability", "setting": "[3]; first compound 0.03162 µM", "result": 0.463}, {"measurement": "relative viability", "setting": "[3]; first compound 0.1 µM", "result": 0.404}, {"measurement": "relative viability", "setting": "[3]; first compound 1 µM", "result": 0.358}, {"measurement": "relative viability", "setting": "[4]; first compound 0.01 µM", "result": 0.115}, {"measurement": "relative viability", "setting": "[4]; first compound 0.03162 µM", "result": 0.11}, {"measurement": "relative viability", "setting": "[4]; first compound 0.1 µM", "result": 0.104}, {"measurement": "relative viability", "setting": "[4]; first compound 1 µM", "result": 0.0985}, {"measurement": "relative viability", "setting": "[5]; first compound 0.01 µM", "result": 0.393}, {"measurement": "relative viability", "setting": "[5]; first compound 0.03162 µM", "result": 0.461}, {"measurement": "relative viability", "setting": "[5]; first compound 0.1 µM", "result": 0.519}, {"measurement": "relative viability", "setting": "[5]; first compound 1 µM", "result": 0.609}, {"measurement": "relative viability", "setting": "[6]; first compound 0.01 µM", "result": 0.216}, {"measurement": "relative viability", "setting": "[6]; first compound 0.03162 µM", "result": 0.221}, {"measurement": "relative viability", "setting": "[6]; first compound 0.1 µM", "result": 0.187}, {"measurement": "relative viability", "setting": "[6]; first compound 1 µM", "result": 0.204}, {"measurement": "relative viability", "setting": "[7]; first compound 0.01 µM", "result": 0.787}, {"measurement": "relative viability", "setting": "[7]; first compound 0.03162 µM", "result": 0.798}, {"measurement": "relative viability", "setting": "[7]; first compound 0.1 µM", "result": 0.833}, {"measurement": "relative viability", "setting": "[7]; first compound 1 µM", "result": 0.736}, {"measurement": "relative viability", "setting": "[8]; first compound 0.01 µM", "result": 0.93}, {"measurement": "relative viability", "setting": "[8]; first compound 0.03162 µM", "result": 0.906}, {"measurement": "relative viability", "setting": "[8]; first compound 0.1 µM", "result": 0.937}, {"measurement": "relative viability", "setting": "[8]; first compound 1 µM", "result": 0.916}, {"measurement": "relative viability", "setting": "[9]; first compound 0.01 µM", "result": 0.484}, {"measurement": "relative viability", "setting": "[9]; first compound 0.03162 µM", "result": 0.492}, {"measurement": "relative viability", "setting": "[9]; first compound 0.1 µM", "result": 0.513}, {"measurement": "relative viability", "setting": "[9]; first compound 1 µM", "result": 0.523}, {"measurement": "relative viability", "setting": "[10]; first compound 0.01 µM", "result": 0.199}, {"measurement": "relative viability", "setting": "[10]; first compound 0.03162 µM", "result": 0.185}, {"measurement": "relative viability", "setting": "[10]; first compound 0.1 µM", "result": 0.183}, {"measurement": "relative viability", "setting": "[10]; first compound 1 µM", "result": 0.191}]}]}
